According to publication PMC10688820 (Microbiome Research Reports, 2023):
Like-named read-outs stand apart in the source and are kept apart here.

Columns and labels:
[1] = biological target: T1, BiBga42A (Bifidobacterium longum, UniProt Z9E2X9H8H4, R121A/A160E/A318E, form not given); test: coupled colorimetric Gal release assay (Thio-NADH, […] nm); assay type: biochemical; conditions: 100 mM citrate-phosphate pH 6.5, 37 °C, 12.5 mM MgCl2 (coupling mix)
T1 construct: C-terminal hexahistidine tag, pET23b, expressed in E. coli BL21 (DE3) ΔlacZ; GH42; homotrimer, active site completed by W200 and F221 of neighbouring subunit

[2] = biological target: T2, BiBga42A (Bifidobacterium longum, UniProt Z9E2X9H8H4, A160E/F221A/A318E, form not given); test: as above; assay type: biochemical; conditions: 100 mM citrate-phosphate pH 6.5, 37 °C, 12.5 mM MgCl2 (coupling mix); read-out: LNT
T2 construct: C-terminal hexahistidine tag, pET23b, expressed in E. coli BL21 (DE3) ΔlacZ; GH42; homotrimer, active site completed by W200 and F221 of neighbouring subunit

[3] = biological target: T3, BiBga42A (Bifidobacterium longum, UniProt Z9E2X9H8H4, A160E/A318E/W326A, form not given); test: as above; assay type: biochemical; conditions: 100 mM citrate-phosphate pH 6.5, 37 °C, 12.5 mM MgCl2 (coupling mix)
T3 construct: C-terminal hexahistidine tag, pET23b, expressed in E. coli BL21 (DE3) ΔlacZ; GH42; homotrimer, active site completed by W200 and F221 of neighbouring subunit

[4] = biological target: T4, BiBga42A (Bifidobacterium longum, UniProt Z9E2X9H8H4, A160E/A318S, form not given); test: X-ray co-crystal structure, […] Å; assay type: binding; conditions: co-crystallised with 100 mM LNT, pH 5.8; subsites -1 to +3
T4 construct: C-terminal hexahistidine tag, pET23b, expressed in E. coli BL21 (DE3) ΔlacZ; GH42; homotrimer, active site completed by W200 and F221 of neighbouring subunit

[5] = biological target: T5, BiBga42A (Bifidobacterium longum, UniProt Z9E2X9H8H4, A160E/Y287F/A318E, form not given); test: coupled colorimetric Gal release assay (Thio-NADH, […] nm); assay type: biochemical; conditions: 100 mM citrate-phosphate pH 6.5, 37 °C, 12.5 mM MgCl2 (coupling mix); read-out: LNT
T5 construct: C-terminal hexahistidine tag, pET23b, expressed in E. coli BL21 (DE3) ΔlacZ; GH42; homotrimer, active site completed by W200 and F221 of neighbouring subunit

[6] = biological target: T6, BiBga42A (Bifidobacterium longum, UniProt Z9E2X9H8H4, A160E/A318E, form not given); test: as above; assay type: biochemical; conditions: 100 mM citrate-phosphate pH 6.5, 37 °C, 12.5 mM MgCl2 (coupling mix)
T6 construct: C-terminal hexahistidine tag, pET23b, expressed in E. coli BL21 (DE3) ΔlacZ; GH42; homotrimer, active site completed by W200 and F221 of neighbouring subunit

[7] = biological target: T7, BiBga42A (Bifidobacterium longum, UniProt Z9E2X9H8H4, A160E/A318E/R327A, form not given); test: as above; assay type: biochemical; conditions: 100 mM citrate-phosphate pH 6.5, 37 °C, 12.5 mM MgCl2 (coupling mix); read-out: LNT
T7 construct: C-terminal hexahistidine tag, pET23b, expressed in E. coli BL21 (DE3) ΔlacZ; GH42; homotrimer, active site completed by W200 and F221 of neighbouring subunit

[8] = biological target: T8, BiBga42A (Bifidobacterium longum, UniProt Z9E2X9H8H4, A160E/M262G/A318E, form not given); test: as above; assay type: biochemical; conditions: 100 mM citrate-phosphate pH 6.5, 37 °C, 12.5 mM MgCl2 (coupling mix); read-out: LNT
T8 construct: C-terminal hexahistidine tag, pET23b, expressed in E. coli BL21 (DE3) ΔlacZ; GH42; homotrimer, active site completed by W200 and F221 of neighbouring subunit

[9] = biological target: BiBga42A E318S mutant (Bifidobacterium longum subsp. infantis ATCC 15697); test: crystal structure; hanging drop vapor diffusion, 20 °C, 20 mg/mL protein; trimer seen by a crystallographic 3-fold axis (WT-GOL, E318S-LNT) or within the asymmetric unit (E160A/E318A-Gal)
[10] = biological target: BiBga42A wild-type (WT) enzyme, glycoside hydrolase family 42 β-galactosidase from Bifidobacterium longum subsp. infantis ATCC 15697 (Bifidobacterium longum subsp. infantis ATCC 15697); test: as above
[11] = biological target: BiBga42A E160A/E318A double mutant (Bifidobacterium longum subsp. infantis ATCC 15697); test: as above
[12] = biological target: T9, BiBga42A (Bifidobacterium longum, UniProt Z9E2X9H8H4, A318E, form not given); test: coupled colorimetric Gal release assay (Thio-NADH, […] nm); assay type: biochemical; conditions: 100 mM citrate-phosphate pH 6.5, 37 °C, 12.5 mM MgCl2 (coupling mix); read-out: pNP-Gal
T9 construct: C-terminal hexahistidine tag, pET23b, expressed in E. coli BL21 (DE3) ΔlacZ; GH42; homotrimer, active site completed by W200 and F221 of neighbouring subunit

[13] = biological target: T10, BiBga42A (Bifidobacterium longum, UniProt Z9E2X9H8H4, A160E, form not given); test: as above; assay type: biochemical; conditions: 100 mM citrate-phosphate pH 6.5, 37 °C, 12.5 mM MgCl2 (coupling mix); read-out: pNP-Gal
T10 construct: C-terminal hexahistidine tag, pET23b, expressed in E. coli BL21 (DE3) ΔlacZ; GH42; homotrimer, active site completed by W200 and F221 of neighbouring subunit

For `CC(=O)N[C@H]1[C@H](O[C@H]2[C@@H](O)[C@@H](CO)O[C@@H](O[C@H]3[C@H](O)[C@@H](O)C(O)O[C@@H]3CO)[C@@H]2O)O[C@H](CO)[C@@H](O)[C@@H]1O[C@@H]1O[C@H](CO)[C@H](O)[C@H](O)[C@H]1O` (some centres unmarked) [LNT], which Km ([1]; read-out: LNT) is on record?
The Km was 16 mM.

What about the Km [2] of the same compound?
The Km was 8.4 mM.

What about the Km ([3]; read-out: LNT) of the same compound?
Its Km is 7.7 mM.

What about the “X-ray co-crystal structure, 2.2 Å” value [4] of the same compound?
Its value is “An LNT-complexed crystal was indeed obtained for the mutant”.

What about the Km [5] of the same compound?
The Km was 2.6 mM.

And the Km ([6]; read-out: LNT)?
Its Km is 2.7 mM.

And the Km [7]?
The Km was 11 mM.

What about the Km [8] of the same compound?
The Km was 3 mM.

For BiBga42A E318S mutant (enzyme), which stoichiometry N [9] is on record?
Its stoichiometry N is 3.

“BiBga42A wild-type (WT) enzyme, glycoside hydrolase family 42 β-galactosidase from Bifidobacterium longum subsp. infantis ATCC 15697” was tested. Which stoichiometry N [10] did it give?
The stoichiometry N was 3.

For “BiBga42A E160A/E318A double mutant (enzyme)”, which stoichiometry N [11] is on record?
Its stoichiometry N is 3.

`CC(=O)N[C@H]1C(O)O[C@H](CO)[C@@H](O)[C@@H]1O[C@@H]1O[C@H](CO)[C@H](O)[C@H](O)[C@H]1O` (some centres unmarked) [LNB] was tested. Which Km ([6]; read-out: LNB) did it give?
The Km was 25 mM.

Which Km [12] does the source give for `O=[N+]([O-])c1ccc(O[C@@H]2O[C@H](CO)[C@H](O)[C@H](O)[C@H]2O)cc1` [pNP-Gal] here?
The Km was 0.94 mM.

What about the Km ([1]; read-out: pNP-Gal) of the same compound?
The Km was 1.4 mM.

What about the Km ([3]; read-out: pNP-Gal) of the same compound?
Its Km is 12 mM.

And the Km ([6]; read-out: pNP-Gal)?
Its Km is 0.57 mM.

And the Km [13]?
The Km was 1.4 mM.
